This is an account of results in patent US20250313635A1, “ANTI-INTEGRIN ANTIBODIES AND USES THEREOF” (Merck Sharp & Dohme LLC, priority 2022, published 2025).

The nature of data set [1]: Plasma PK analysis in bleomycin model (LC-MS/MS). The note with it: mouse, two hours after the last dose at end of study; MK-0429 200 mpk osmotic minipump, Nintedanib 60 mpk po qd. Type of data set: in vivo. The method, then: Mice at 12˜13 weeks of age were randomized to five groups: saline, bleomycin instillation with vehicle (osmotic minipump), bleomycin instillation with MK-0429 treatment, bleomycin instillation with vehicle oral treatment, and bleomycin instillation with Nintedanib treatment. All mice were anaesthetized with isoflurane. Bleomycin was dosed by intratracheal (i.t) instillation in a volume of 50 μL, at a dose of 1 unit/kg body weight. After instillation, mice were kept in a heads-up position for 2-5 minutes before putting into cages. MK-0429 (200 mg/kg) was administered by Osmotic pump from day 5 to day 14 and Nintedanib (60 mg/kg) was administered, p.o., q.d., for 14 days. Vehicle was dosed orally at 10 am daily from the day 5 to the end of the studies and dosing volume was 10 mL/kg. For plasma PK analysis, an aliquot of 50 μL plasma was spiked into a 96-well plate, and 200 μL of acetonitrile containing internal standard were added for protein precipitation. The mixture was vortexed, centrifuged at 4000 rpm for 20 minutes. Then 50 μL of supernatant fraction was mixed with 200 μL H2O and the final solution were injected for LC-MS/MS analysis. The methods for quantitative analysis were developed on UPLC (Waters) chromatographic system equipped with an API4000 QTrap™ mass spectrometer (Applied Biosystems, Concord, Ontario, Canada). […]

Data set [2] has as its system bleomycin-induced lung fibrosis mouse model. The data set can be described thus: Mouse bleomycin lung fibrosis model. It counts as in vivo. The note with it: MK-0429 200 mpk osmotic minipump, Nintedanib 60 mpk po qd. The method, then: Mouse bleomycin lungfibrosis models. Adult male C57BL/6 mice (Taconic, Rensselaer, NY) were housed in a temperature and humidity-controlled facility with a 12-hour light: 12-hour dark cycle. Animals had ad libitum access to food (Purina Rodent Chow 5053, LabDiet, St. Louis, MO) and water. All procedures utilizing experimental animals were conducted in accordance with the Guide for the Care and Use of Laboratory Animals, and experimental procedures were reviewed and approved by the Institutional Animal Care and Use Committee at MRL, Kenilworth, NJ.
For osmotic minipump implantation, trifluoroacetate (TFA) salt of MK-0429 was formulated in 50% dimethylsulfoxide (DMSO)/50% H2O at a concentration of 416 mg/mL. MK-0429 or vehicle solution were filled in minipumps (Alzet, #1007D, flow rate 0.5 μL/hour). Minipumps were placed in mice subcutaneously in a pocket on the back between the shoulder blades. A small incision was made and a subcutaneous pocket formed by blunt dissection. A sterile minipump was inserted into the subcutaneous pocket. The incision was closed with staples or non-absorbable suture or absorbable (subcuticular) suture. The minipumps were used for continuous drug delivery for two weeks.
Mice at 12˜13 weeks of age were randomized to five groups: saline, bleomycin instillation with vehicle (osmotic minipump), bleomycin instillation with MK-0429 treatment, bleomycin instillation with vehicle oral treatment, and bleomycin instillation with Nintedanib treatment. All mice were anaesthetized with isoflurane. Bleomycin was dosed by intratracheal (i.t) instillation in a volume of 50 μL, at a dose of 1 unit/kg body weight. After instillation, mice were kept in a heads-up position for 2-5 minutes before putting into cages. MK-0429 (200 mg/kg) was administered by Osmotic pump from day 5 to day 14 and Nintedanib (60 mg/kg) was administered, p.o., q.d., for 14 days. Vehicle was dosed orally at 10 am daily from the day 5 to the end of the studies and dosing volume was 10 mL/kg. For plasma PK analysis, an aliquot of 50 μL plasma was spiked into a 96-well plate, and 200 μL of acetonitrile containing internal standard were added for protein precipitation. The mixture was vortexed, centrifuged at 4000 rpm for 20 minutes. Then 50 μL of supernatant fraction was mixed with 200 μL H2O and the final solution were injected for LC-MS/MS analysis. The methods for quantitative analysis were developed on UPLC (Waters) chromatographic system equipped with an API4000 QTrap™ mass spectrometer (Applied Biosystems, Concord, Ontario, Canada). Analyst 1.5 software packages (Applied Biosystems) were used to control the LC-MS/MS system and data acquisition and processing.
Histopathology analysis. Upon completion of the study, animals were euthanized and tissues were collected for histological assessment. Lung tissues were perfused with 10% formalin, fixed for 24 hours, and then paraffin embedded. Tissue sections were stained with hematoxylin & eosin (H&E) and Masson's trichrome, subsequently evaluated under light microscope. The severity of histopathologic changes and fibrosis in the lung were graded as described previously by pathologists (Ashcroft et al., J. Clin. Pathol. 41, 467-470 (1988); Hubner et al., Biotechniques 44(507-511), 514-607 (2008)). Following deparaffinization and rehydration, each lung tissue section was processed to identify αSMA deposition by immunohistochemistry. The primary antibodies used were αSMA antibody from Sigma. The Aperio ScanScope™ XT Slide Scanner (Aperio Technologies) system was used to capture whole slide digital images with a 20×objective. Digital images were managed using Aperio Spectrum™. The positive stains were identified and quantified using a macro created from a color deconvolution algorithm (Aperio Technologies). Statistical analysis was performed by using One-way ANOVA followed by Tukey's test.

Data set [3] deals with Normal human lung fibroblasts. The data set can be described thus: αSMA imaging, TGFβ-induced αSMA expression. Type of data set: cell-based. Conditions: TGFβ 5 ng/mL, pre-treated 30 minutes, MK-0429 (10 µM) or SB-525334 (10 μM), 48 hours. As for the experimental part:
αSMA imaging. Primary cells (passage 3-5) were grown on Cell carrier Ultra, collagen Type 1 coated 96-well plates (Perkin Elmer, #6055700) at a density of 25,000 cells/well. Once the cells adhere, they were starved in serum free media for 24 hours followed by addition of treatments, i.e., 5 ng/mL TGFβ (Biolegend #580702)±inhibitors. Cells were pre-treated with inhibitors for 30 minutes prior to the addition of TGFβ stimulation. 48 hours post treatment, the cells were fixed in 4% methanol free paraformaldehyde (ThermoFisher Scientific #28908) for 20 minutes at room temperature and incubated with anti-alpha smooth muscle Actin antibody (Abcam #ab7817) at 1:4000 overnight at 4° C. Following primary antibody incubation, cells were incubated with Goat anti-mouse secondary antibody (ThermoFisher Scientific #A32723) at 1:500 and Hoechst (ThermoFisher Scientific #62249) at 1:1000 for one hour at RT. The fixed and stained cells were images for immunofluorescence on Perkin Elmer's Opera Phenix high content Imager.

The mark [4] stands for this setting: 14 days treatment, vs BLM-vehicle.

With `COC(=O)c1ccc2c(c1)NC(=O)/C2=C(\Nc1ccc(N(C)C(=O)CN2CCN(C)CC2)cc1)c1ccccc1` [Nintedanib, reference compound], in data set [1], the mean plasma concentration was 656+229 ng/mL. Moreover, in data set [2], the “body weight difference vs bleomycin group” value was “no significant body weight difference”. Moreover, in data set [2] (setting [4]), the “BALF TIMP-1 content” value is given as “significantly decreased”, the “bleomycin-induced αSMA expression (IHC)” value is “significantly decreased”, the “inflammation in the lung” value is given as “decreased inflammation” and the “modified Ashcroft score” value is “significantly improved”.

For the compound `Cc1cccc(-c2[nH]c(C(C)(C)C)nc2-c2ccc3nccnc3c2)n1` [SB-525334, reference compound], the “αSMA intensity and the percentage of stimulated cells following TGFβ treatment” value in data set [3] is reported as “significantly reduced”.
